Assay: xn = mol fraction of the nth substance listed

c1ccccc1 + CCO
Details	viscosity [mPa·s]
303.15 K, 101 kPa, x1 = 0.16	0.839
303.15 K, 101 kPa, x1 = 0.2547	0.737
303.15 K, 101 kPa, x1 = 0.37	0.681
303.15 K, 101 kPa, x1 = 0.4079	0.65
303.15 K, 101 kPa, x1 = 0.554	0.593
303.15 K, 101 kPa, x1 = 0.64	0.571
303.15 K, 101 kPa, x1 = 0.676	0.564
303.15 K, 101 kPa, x1 = 0.779	0.544
303.15 K, 101 kPa, x1 = 0.842	0.546
303.15 K, 101 kPa, x1 = 0.91	0.547
308 K, 100 kPa, x2 = 0.4	0.551
308.15 K, 101 kPa, x1 = 0.1259	0.769
308.15 K, 101 kPa, x1 = 0.16	0.772
308.15 K, 101 kPa, x1 = 0.2547	0.675
308.15 K, 101 kPa, x1 = 0.37	0.623
308.15 K, 101 kPa, x1 = 0.4079	0.598
308.15 K, 101 kPa, x1 = 0.554	0.548
308.15 K, 101 kPa, x1 = 0.64	0.538
308.15 K, 101 kPa, x1 = 0.676	0.526
308.15 K, 101 kPa, x1 = 0.779	0.511
308.15 K, 101 kPa, x1 = 0.842	0.511
308.15 K, 101 kPa, x1 = 0.91	0.51
313 K, 100 kPa, x2 = 0.4	0.528
313.15 K, 101 kPa, x1 = 0.1259	0.705
313.15 K, 101 kPa, x1 = 0.16	0.699
313.15 K, 101 kPa, x1 = 0.2547	0.622
313.15 K, 101 kPa, x1 = 0.37	0.567
313.15 K, 101 kPa, x1 = 0.4079	0.553
313.15 K, 101 kPa, x1 = 0.5	0.5326
313.15 K, 101 kPa, x1 = 0.554	0.51
313.15 K, 101 kPa, x1 = 0.64	0.5
313.15 K, 101 kPa, x1 = 0.676	0.488
313.15 K, 101 kPa, x1 = 0.7	0.4812
313.15 K, 101 kPa, x1 = 0.779	0.478
313.15 K, 101 kPa, x1 = 0.842	0.481
313.15 K, 101 kPa, x1 = 0.91	0.479
313.15 K, 101.33 kPa, x2 = 0.113	0.525
313.15 K, 101.33 kPa, x2 = 0.306	0.515
313.15 K, 101.33 kPa, x2 = 0.5	0.555
313.15 K, 101.33 kPa, x2 = 0.692	0.629
313.15 K, 101.33 kPa, x2 = 0.892	0.748
318 K, 100 kPa, x2 = 0.4	0.477
318.15 K, 101 kPa, x1 = 0.1259	0.646
318.15 K, 101 kPa, x1 = 0.2547	0.573
318.15 K, 101 kPa, x1 = 0.4079	0.514
318.15 K, 101 kPa, x1 = 0.554	0.475
318.15 K, 101 kPa, x1 = 0.676	0.458
318.15 K, 101 kPa, x1 = 0.779	0.447
318.15 K, 101 kPa, x1 = 0.842	0.451
318.15 K, 101 kPa, x1 = 0.91	0.451
323.15 K, 101.33 kPa, x2 = 0.2	0.424
